Experimental data from patent publication US6355799B1, “Substituted benzene compounds, process for their preparation, and herbicidal and defoliant compositions containing them” (ISK Americas Incorporated, priority 1997, dated 2002).

Tests used:
Format in all cases: in vivo
[1] = test system: upland rice (Oryza sp., var. Tebonnet, RICE); assay: Pre-emerge test, crop safety; settings: crop damage, pre-emerge, phytotoxicity rating 0-100 at 14 days after application
How it was run: (§1)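 Visual ratings on a 0-100 scale (0 no damage, 100 all plants dead) were taken at 14 days after treatment. Rates of 15-1000 g ai/ha in acetone, 187 l/ha, were sprayed onto soil one day after planting (pre-emerge) or onto 2-3 leaf plants with 0.25% v/v surfactant (post-emerge).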

[2] = test system: field corn (Zea mays L., var. Dekalb 535, CORN); assay: Pre-emerge test, crop safety; settings: crop damage, pre-emerge, phytotoxicity rating 0-100 at 14 days after application
How it was run: as §1

[3] = test system: upland rice (Oryza sp., var. Tebonnet, RICE); assay: Post-emerge test, crop safety; settings: post-emerge, 14 days after application, rating scale 0-100
How it was run: (§2)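 Fourteen days after spraying, crop and weed injury was graded visually from 0, no effect, to 100, every plant dead. Test substances were dissolved in acetone and applied at 15–1000 g ai/ha with a flat-fan nozzle. Application was either pre-emergence, one day after sowing, or post-emergence at the 2–3 leaf stage.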

[4] = test system: field corn (Zea mays L., var. Dekalb 535, CORN); assay: Post-emerge test, crop safety; settings: post-emerge, 14 days after application, rating scale 0-100
How it was run: as §2

[5] = test system: barnyardgrass (Echinochloa crus-galli, ECHCG); assay: Pre-emerge test, greenhouse herbicide activity screening; settings: pre-emerge, phytotoxicity rating 0-100 at 14 days after application
How it was run: as §2

[6] = test system: sicklepod (Cassia obtusifolia, CASOB); assay: as above; settings: pre-emerge, phytotoxicity rating 0-100 at 14 days after application
How it was run: as §2

[7] = test system: ivyleaf morningglory (Ipomoea hederacea, IPOHE); assay: as above; settings: pre-emerge, phytotoxicity rating 0-100 at 14 days after application
How it was run: as §2

[8] = test system: johnsongrass (Sorghum halepense, SORHA); assay: as above; settings: pre-emerge, phytotoxicity rating 0-100 at 14 days after application
How it was run: as §2

[9] = test system: velvetleaf (Abutilon theophrasti, ABUTH); assay: as above; settings: pre-emerge, phytotoxicity rating 0-100 at 14 days after application
How it was run: as §2

[10] = test system: large crabgrass (Digitaria sanguinalis, DIGSA); assay: as above; settings: pre-emerge, phytotoxicity rating 0-100 at 14 days after application
How it was run: as §2

[11] = test system: green foxtail (Setaria viridis, SETVI); assay: as above; settings: pre-emerge, phytotoxicity rating 0-100 at 14 days after application
How it was run: as §2

[12] = test system: lambsquarters (Chenopodium album, CHEAL); assay: as above; settings: pre-emerge, phytotoxicity rating 0-100 at 14 days after application
How it was run: as §2

[13] = test system: barnyardgrass (Echinochloa crus-galli, ECHCG); assay: Post-emerge test, greenhouse herbicide activity screening; settings: post-emerge, 14 days after application, rating scale 0-100
How it was run: (§3)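 Plants grown in 10 cm pots of sandy loam mix received acetone-dissolved compounds through a moving flat-fan nozzle. Doses ranged from 15 to 1000 g ai/ha. Pre-emerge pots were seeded one day earlier, post-emerge pots 8–21 days earlier. Fourteen days on, each pot was graded 0–100 for damage.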

[14] = test system: sicklepod (Cassia obtusifolia, CASOB); assay: as above; settings: post-emerge, 14 days after application, rating scale 0-100
How it was run: as §3

[15] = test system: ivyleaf morningglory (Ipomoea hederacea, IPOHE); assay: as above; settings: post-emerge, 14 days after application, rating scale 0-100
How it was run: as §3

[16] = test system: johnsongrass (Sorghum halepense, SORHA); assay: as above; settings: post-emerge, 14 days after application, rating scale 0-100
How it was run: as §3

[17] = test system: velvetleaf (Abutilon theophrasti, ABUTH); assay: as above; settings: post-emerge, 14 days after application, rating scale 0-100
How it was run: as §3

[18] = test system: large crabgrass (Digitaria sanguinalis, DIGSA); assay: as above; settings: post-emerge, 14 days after application, rating scale 0-100
How it was run: as §3

[19] = test system: green foxtail (Setaria viridis, SETVI); assay: as above; settings: post-emerge, 14 days after application, rating scale 0-100
How it was run: as §3

[20] = test system: lambsquarters (Chenopodium album, CHEAL); assay: as above; settings: post-emerge, 14 days after application, rating scale 0-100
How it was run: as §3

[21] = test system: redroot pigweed (Amaranthus retroflexus, AMARE); assay: as above; settings: post-emerge, 14 days after application
How it was run: as §3

[22] = test system: redroot pigweed (Amaranthus retroflexus, AMARE); assay: Pre-emerge test, greenhouse herbicide activity screening; settings: pre-emerge, phytotoxicity rating 0-100 at 14 days after application
How it was run: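 Sandy loam pots; pre-emerge: sown 1 d pre-spray, surface-watered after, then bottom-watered. Post-emerge: sown 8–21 d before, 2–3 leaf stage, + 0.25% v/v NIS, bottom-watered. Acetone, 187 l/ha track spray, 15–1000 g ai/ha. 0–100 injury score, day 14.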

[23] = 63 g ai/ha, rating scale 0-100 (0 no damage, 100 complete death)
[24] = 250 g ai/ha, rating scale 0-100

Cc1cccc(C)c1OC(=O)Nc1c(C)c(Cl)cc(F)c1-n1c(=O)cc(C(F)(F)F)n(C)c1=O [4-55]
Pre-emerge Herbicidal Activity RICE ([1]; rate 63 g ai/ha): 0
Pre-emerge Herbicidal Activity RICE ([1]; rate 250 g ai/ha): 60
Pre-emerge Herbicidal Activity CORN ([2]; rate 63 g ai/ha): 0
Pre-emerge Herbicidal Activity CORN ([2]; rate 250 g ai/ha): 30
phytotoxicity rating RICE (crop damage) ([3]; 63 g ai/ha): 0
phytotoxicity rating RICE (crop damage) ([3]; 250 g ai/ha): 35
phytotoxicity rating CORN (crop damage) ([4]; 63 g ai/ha): 10
phytotoxicity rating CORN (crop damage) ([4]; 250 g ai/ha): 5
Pre-emerge Herbicidal Activity ECHCG ([5]; rate 63 g ai/ha): 0
Pre-emerge Herbicidal Activity ECHCG ([5]; rate 250 g ai/ha): 30
Pre-emerge Herbicidal Activity CASOB ([6]; rate 63 g ai/ha): 0
Pre-emerge Herbicidal Activity CASOB ([6]; rate 250 g ai/ha): 30
Pre-emerge Herbicidal Activity IPOHE ([7]; rate 63 g ai/ha): 20
Pre-emerge Herbicidal Activity IPOHE ([7]; rate 250 g ai/ha): 70
Pre-emerge Herbicidal Activity SORHA ([8]; rate 63 g ai/ha): 0
Pre-emerge Herbicidal Activity SORHA ([8]; rate 250 g ai/ha): 60
Pre-emerge Herbicidal Activity ABUTH ([9]; rate 63 g ai/ha): 80
Pre-emerge Herbicidal Activity ABUTH ([9]; rate 250 g ai/ha): 100
Pre-emerge Herbicidal Activity DIGSA ([10]; rate 63 g ai/ha): 0
Pre-emerge Herbicidal Activity DIGSA ([10]; rate 250 g ai/ha): 70
Pre-emerge Herbicidal Activity SETVI ([11]; rate 63 g ai/ha): 40
Pre-emerge Herbicidal Activity SETVI ([11]; rate 250 g ai/ha): 90
Pre-emerge Herbicidal Activity CHEAL ([12]; rate 63 g ai/ha): 90
Pre-emerge Herbicidal Activity CHEAL ([12]; rate 250 g ai/ha): 100
phytotoxicity rating ECHCG ([13]; 63 g ai/ha): 0
phytotoxicity rating ECHCG ([13]; 250 g ai/ha): 20
phytotoxicity rating CASOB ([14]; 63 g ai/ha): 20
phytotoxicity rating CASOB ([14]; 250 g ai/ha): 40
phytotoxicity rating IPOHE ([15]; 63 g ai/ha): 40
phytotoxicity rating IPOHE ([15]; 250 g ai/ha): 85
phytotoxicity rating SORHA ([16]; 63 g ai/ha): 0
phytotoxicity rating SORHA ([16]; 250 g ai/ha): 10
phytotoxicity rating ABUTH ([17]; 63 g ai/ha): 100
phytotoxicity rating ABUTH ([17]; 250 g ai/ha): 100
phytotoxicity rating DIGSA ([18]; 63 g ai/ha): 0
phytotoxicity rating DIGSA ([18]; 250 g ai/ha): 10
phytotoxicity rating SETVI ([19]; 63 g ai/ha): 10
phytotoxicity rating SETVI ([19]; 250 g ai/ha): 40
phytotoxicity rating CHEAL ([20]; 63 g ai/ha): 50
phytotoxicity rating CHEAL ([20]; 250 g ai/ha): 90
phytotoxicity rating AMARE [21, 23]: 50
phytotoxicity rating AMARE [21, 24]: 80
Pre-emerge Herbicidal Activity AMARE ([22]; rate 63 g ai/ha): 30
Pre-emerge Herbicidal Activity AMARE ([22]; rate 250 g ai/ha): 90

Cc1ccccc1COC(=O)Nc1c(C)c(Cl)cc(F)c1-n1c(=O)cc(C(F)(F)F)n(C)c1=O [4-56]
Pre-emerge Herbicidal Activity RICE ([1]; rate 63 g ai/ha): 50
Pre-emerge Herbicidal Activity RICE ([1]; rate 250 g ai/ha): 90
Pre-emerge Herbicidal Activity CORN ([2]; rate 63 g ai/ha): 35
Pre-emerge Herbicidal Activity CORN ([2]; rate 250 g ai/ha): 80
phytotoxicity rating RICE (crop damage) ([3]; 63 g ai/ha): 65
phytotoxicity rating RICE (crop damage) ([3]; 250 g ai/ha): 85
phytotoxicity rating CORN (crop damage) ([4]; 63 g ai/ha): 80
phytotoxicity rating CORN (crop damage) ([4]; 250 g ai/ha): 100
Pre-emerge Herbicidal Activity ECHCG ([5]; rate 63 g ai/ha): 50
Pre-emerge Herbicidal Activity ECHCG ([5]; rate 250 g ai/ha): 80
Pre-emerge Herbicidal Activity CASOB ([6]; rate 63 g ai/ha): 10
Pre-emerge Herbicidal Activity CASOB ([6]; rate 250 g ai/ha): 100
Pre-emerge Herbicidal Activity IPOHE ([7]; rate 63 g ai/ha): 40
Pre-emerge Herbicidal Activity IPOHE ([7]; rate 250 g ai/ha): 100
Pre-emerge Herbicidal Activity SORHA ([8]; rate 63 g ai/ha): 50
Pre-emerge Herbicidal Activity SORHA ([8]; rate 250 g ai/ha): 90
Pre-emerge Herbicidal Activity ABUTH ([9]; rate 63 g ai/ha): 100
Pre-emerge Herbicidal Activity ABUTH ([9]; rate 250 g ai/ha): 100
Pre-emerge Herbicidal Activity DIGSA ([10]; rate 63 g ai/ha): 50
Pre-emerge Herbicidal Activity DIGSA ([10]; rate 250 g ai/ha): 95
Pre-emerge Herbicidal Activity SETVI ([11]; rate 63 g ai/ha): 90
Pre-emerge Herbicidal Activity SETVI ([11]; rate 250 g ai/ha): 95
Pre-emerge Herbicidal Activity CHEAL ([12]; rate 63 g ai/ha): 100
Pre-emerge Herbicidal Activity CHEAL ([12]; rate 250 g ai/ha): 100
phytotoxicity rating ECHCG ([13]; 63 g ai/ha): 50
phytotoxicity rating ECHCG ([13]; 250 g ai/ha): 90
phytotoxicity rating CASOB ([14]; 63 g ai/ha): 100
phytotoxicity rating CASOB ([14]; 250 g ai/ha): 100
phytotoxicity rating IPOHE ([15]; 63 g ai/ha): 100
phytotoxicity rating IPOHE ([15]; 250 g ai/ha): 100
phytotoxicity rating SORHA ([16]; 63 g ai/ha): 40
phytotoxicity rating SORHA ([16]; 250 g ai/ha): 90
phytotoxicity rating ABUTH ([17]; 63 g ai/ha): 100
phytotoxicity rating ABUTH ([17]; 250 g ai/ha): 100
phytotoxicity rating DIGSA ([18]; 63 g ai/ha): 20
phytotoxicity rating DIGSA ([18]; 250 g ai/ha): 70
phytotoxicity rating SETVI ([19]; 63 g ai/ha): 90
phytotoxicity rating SETVI ([19]; 250 g ai/ha): 100
phytotoxicity rating CHEAL ([20]; 63 g ai/ha): 100
phytotoxicity rating CHEAL ([20]; 250 g ai/ha): 100
phytotoxicity rating AMARE [21, 23]: 100
phytotoxicity rating AMARE [21, 24]: 100
Pre-emerge Herbicidal Activity AMARE ([22]; rate 63 g ai/ha): 100
Pre-emerge Herbicidal Activity AMARE ([22]; rate 250 g ai/ha): 100
